Measured values from patent publication US20230226034A1, “PROPHYLACTIC OR THERAPEUTIC AGENT FOR PHOTODERMATOSIS” (MITSUBISHI TANABE PHARMA CORPORATION, priority 2020, published 2023).
Marks after values point to notes of the source that are not given here.

Assays:
[1] = tested on: tyrosinase-related protein 1 (TYRP1); test: Expression of melanin-related gene TYRP1 in skin, clinical trial in healthy subjects; format: in vivo, human; conditions: back skin mRNA, next day versus day before administration
[2] = tested on: Male C57BL/6JHamSlc-Ay/+ mice; test: Effect on darkening of mouse body hair; format: in vivo; conditions: day 6
Procedure: Male C57BL/6JHamSlc-Ay/+ mice (Japan SLC, Inc.) were used. The test was performed with 29- or 30-days old mice, in order to use each individual whose hair cycle was at the anagen stage. The hair on the back of each of the mice was shaved with a clipper before the starting of administration, and any individual with no bad conditions such as nicks and maculae on the skin was selected, and subjected to grouping based on a group configuration shown in Table 3 by performing a simulation method so that the body weights in respective groups were uniform. Administration (also including preparation) of the test substance and evaluation of body hair were performed separately by respective different experimenters, and such evaluation was performed in a blinded manner. The starting date of administration was set to day 0, and the test substance was administered once daily for 6 days (day 0 to day 5).
The compound was orally administered at a volume of 0.1 mL/10 g (body weight).
NDP-αMSH (control drug): a required amount of compound was weighed as free-form equivalent, and dissolved in Dulbecco's phosphate-buffered saline (PBS) at a concentration of 0.4 mg/mL. The drug was subcutaneously administered at a volume of 0.05 mL/10 g (body weight).
Evaluation and sampling were performed on day 6. The mice were euthanized by cervical dislocation, thereafter subjected to hair shaving of each back with a clipper, and each individual was rated as positive (+) or negative (−) by the degree of darkening of body hair.
A statistical analysis was performed by SAS, and the significance level was 0.05. A 0.5% MC administration group and an NDP-αMSH group were analyzed by Fisher's exact probability test. […] The fixed-order test was performed by Fisher's exact probability test from a higher dose, and, if significant, performing analysis at a lower dose.

[3] = tested on: skin of healthy subjects; conditions: FIG. 2
[4] = tested on: premelanosome protein (PMEL); test: Expression of melanin-related gene PMEL in skin, clinical trial in healthy subjects; format: in vivo, human; conditions: back skin mRNA, next day versus day before administration
[5] = tested on: Mouse melanoma derived cell line B16F1 cells; test: Melanin production assay in mouse melanoma cell line
Procedure: The following procedure was used to evaluate the effect of a MC1R agonist on melanin production from mouse melanoma cell lines.
Mouse melanoma derived cell line B16F1 cells were used in measurement of melanin production. B16F1 cells were cultured by using Dulbecco's Modified Eagle Medium (DMEM) containing 10% fetal bovine serum (FBS) and 100 U/mL Penicillin-Streptomycin.
One experiment was performed in triplicate, and three independent experiments were performed.
In consideration of the correspondence of each experiment, the difference in % value from a negative control was determined by performing a two-way Dunnett's test based on each group and the number of experiments as factors. The significance level here was 5% on both sides. Such analysis was performed with SAS.

[6] = tested on: Male albino hairless mice (Hos:HR-1); test: UV-A irradiated mouse photoaging model: skin wrinkles by visual observation; format: in vivo; conditions: 3 mg/kg once daily for 8 weeks (compound B oral, HP-228 intraperitoneal); score 0 to 3; FIG. 3
Text: (§1) Male albino hairless mice (strain name: Hos:HR-1, Hoshino Laboratory Animals Inc.) were used. The mice were divided into groups so that the body weight of each group was homogenous, and from the next day, the dorsal skin of the mice was irradiated with an incremental amount of ultraviolet A at the frequency of five times a week for 8 weeks to induce photoaging in the groups other than the untreated group. The UV-A irradiation schedule was based on the report by Minami et al. (J Nutrition Biochem 2009, 20, 389).
(§2) Compound B: The required amount was weighed as free-form equivalent, and suspended in 0.5% MC to achieve the target concentration, and orally administered at a volume of 0.1 mL/10 g (body weight) at 3 mg/kg once daily for 8 weeks.
(§3) HP-228 (reference control, melanocortin receptor-activating peptide): The required amount of free-form was weighed and dissolved in PBS to achieve the target concentration. 0.1 mL/10 g (body weight) was injected intraperitoneally at 3 mg/kg once daily for 8 weeks.
Evaluation of skin wrinkles by visual observation (evaluation item a): The state of skin wrinkles was evaluated on a four-step scale from score 0 (fine wrinkles) to 3 (deep and coarse wrinkles) at a frequency of once a week for 8 weeks after UV-A irradiation.
The skin wrinkle score was tested by Mann-Whitney's U test adjusted for multiplicity, and the significance level was set at 0.05. […]

[7] = tested on: type I collagen; test: UV-A irradiated mouse photoaging model: type I collagen content in the skin; format: in vivo; conditions: 3 mg/kg once daily for 8 weeks (compound B oral, HP-228 intraperitoneal); FIG. 4
Text: as §1, §2, §3
Quantification of type I collagen content in the skin (evaluation item b): Mice were euthanized 8 weeks after UV-A irradiation, and their back skin was collected. Homogenates were prepared by adding acetic acid and pepsin to the collected skin. The amount of collagen in the skin homogenate, which was reduced by UV-A, was measured using the Mouse Collagen Type I ELISA Kit. […]

[8] = tested on: cyclobutane pyrimidine dimer (CPD); test: UV-A irradiated mouse photoaging model: skin histology, CPD immunostaining; format: in vivo
Text: as §1, §2, §3
Skin histological examination (endpoint c): Skin samples were fixed in 10% neutral buffered formalin and paraffin sections were prepared. DNA damage induced by UV-A was detected by enzyme-antibody immunostaining using anti-cyclobutane pyrimidine dimer (CPD) antibody (Cosmo Bio).

[9] = 0.003 mg/kg p.o. once daily for 6 days
[10] = 0.03 mg/kg p.o. once daily for 6 days
[11] = 0.3 mg/kg p.o. once daily for 6 days
[12] = 3 mg/kg p.o. once daily for 6 days
[13] = grade + (Slight), dorsal skin, UVA irradiated, 10 animals, 3 mg/kg for 8 weeks
[14] = grade ± (Minimal), dorsal skin, UVA irradiated, 10 animals, 3 mg/kg for 8 weeks

## COC[C@H]1CN(C(=O)[C@]2(F)CN(C3CCCC3)C[C@H]2c2ccc(OC)cc2)C[C@@H]1c1ccc(C(F)(F)F)cc1N1CCC(C(=O)O)CC1 [Compound A, Cocrystal of 1-{2-[(3S,4R)-1-{[(3R,4R)-1-cyclopentyl-3-fluoro-4-(4-methoxyphenyl)pyrrolidin-3-yl]carbonyl}-4-(methoxymethyl)pyrrolidin-3-yl]-5-(trifluoromethyl)phenyl}piperidine-4-carboxylic acid with phosphoric acid]
[1]; 30 mg single oral dose
  TYRP1 Rate of changes (times): 1.3 times
[1]; 100 mg single oral dose
  TYRP1 Rate of changes (times): 1.37 times
[1]; 300 mg single oral dose
  TYRP1 Rate of changes (times): 2.14 times
[1]; 600 mg single oral dose
  TYRP1 Rate of changes (times): 2.65 times
[2]; [9]
  Number of mice Negative (darkening of body hair): 7
  Number of mice Positive (darkening of body hair): 0
[2]; [10]
  Number of mice Negative (darkening of body hair): 7
  Number of mice Positive (darkening of body hair): 0
[2]; [11]
  Number of mice Negative (darkening of body hair): 0
  Number of mice Positive (darkening of body hair): 7**
[2]; [12]
  Number of mice Negative (darkening of body hair): 0
  Number of mice Positive (darkening of body hair): 7**
[3]; 450 mg orally once daily for 14 days, subjects Fitzpatrick Type V
  increase in melanin density of the skin: no increase in melanin density
[3]; 150 and 300 mg orally once daily for 14 days
  increase in melanin density of the skin: time of maximum: maximum on day 15
[4]; 30 mg single oral dose
  PMEL Rate of changes (times): 1.22 times
[4]; 100 mg single oral dose
  PMEL Rate of changes (times): 1.77 times
[4]; 300 mg single oral dose
  PMEL Rate of changes (times): 2.49 times
[4]; 600 mg single oral dose
  PMEL Rate of changes (times): 3.54 times
[5]; B16F1 cells, 3 days, FIG. 1
  melanin production: induced melanin production in a concentration-dependent manner
[5]; Mus musculus, B16-F1, 72 h, read-out: EC50 value, melanin production
  EC50: 0.013 nM

## CCO[C@H]1CC[C@H](N2C[C@@H](c3ccc(OC)cc3)[C@](OC)(C(=O)N3C[C@H](c4ccc(C(F)(F)F)cc4N4CCC(C(=O)O)CC4)C[C@H]3COC)C2)CC1.Cl.Cl (relative stereo) [Compound B, 1-{2-[(3S,5S)-1-[(3R,4R)-1-(trans-4-ethoxycyclohexyl)-3-methoxy-4-(4-methoxyphenyl)pyrrolidin-3-yl]carbonyl}-5-(methoxymethyl)pyrrolidin-3-yl]-5-(trifluoromethyl)phenyl piperidine-4-carboxylic acid, 2 hydrochloride]
[6]
  skin wrinkle scores: lower or tended to be lower than those of the vehicle control group
[7]
  amount of type I collagen in the skin: significantly higher than that of the vehicle control group
[8]; 3 mg/kg once daily for 8 weeks (compound B oral, HP-228 intraperitoneal)
  Epidermal CPD staining: tended to be less positive than in the vehicle control group
[8]; [13]
  Number of animals, CPDs immunostaining, Cells in dermis, grading +: 10
  Number of animals, CPDs immunostaining, Epidermis (cell nuclei), grading +: 1
  Number of animals, CPDs immunostaining, Hair follicles in dermis (cell nuclei), grading +: 1
  Number of animals, CPDs immunostaining, Sebaceous glands (cell nuclei), grading +: 9
[8]; grade ++ (Moderate), dorsal skin, UVA irradiated, 10 animals, 3 mg/kg for 8 weeks
  Number of animals, CPDs immunostaining, Epidermis (cell nuclei), grading ++: 6
[8]; grade +++ (Severe), dorsal skin, UVA irradiated, 10 animals, 3 mg/kg for 8 weeks
  Number of animals, CPDs immunostaining, Epidermis (cell nuclei), grading +++: 3
[8]; [14]
  Number of animals, CPDs immunostaining, Hair follicles in dermis (cell nuclei), grading ±: 9
  Number of animals, CPDs immunostaining, Other tissues (incl. cytoplasm in sebaceous glands), grading ±: 10
  Number of animals, CPDs immunostaining, Sebaceous glands (cell nuclei), grading ±: 1
